According to patent publication US5334761A, “Cationic lipids” (Life Technologies, Inc., priority 1992, dated 1994):
Structures can show the parent of a compound that is named as a salt.

Key:
Assay in all cases: CAT transient transfection
[1] = tested on: normal human keratinocytes; type: cell-based; settings: keratinocytes
Experimental: (§1) A one-to-one mixture (by weight) of the desired lipid and dioleylphosphatidyl ethanolamine was prepared in CHCl3. The CHCl3 was removed on the rotary evaporator to obtain a thin film of lipid mixture. The mixture was hydrated with enough water to obtain approximately 1.25 mg of lipid per ml of solution. The solution was passed through a microfluidizer twice and diluted to 1 mg/ml. The liposome formulation was then filtered through a 0.2 μ filter. Compound 8 was also formulated without DOPE either by sonication at 1 mg/ml in water or by dissolving a dried lipid film with ethanol and then adding water to give a final concentration of 2.5 mg/ml. Ethanol was 10% of that volume. In some instances, this was further diluted with water to 1 mg/ml, 4% ethanol.
(§2) Baby hamster kidney (BHK-21) , COS-7, HeLa-S3 cells, and normal human fibroblasts isolated from newborn foreskin dermis were grown in Dulbecco's-modified Eagle's medium (DMEM) containing 10% fetal bovine serum (FBS), 2 mM L-glutamine (gln), 0.1 mM MEM nonessential amino acids (NEAA), 100 U/ml penicillin, and 100 μg/ml streptomycin. NIH-3T3 cells were grown in DMEM containing 10% calf serum (CS), 2 mMgln, 0.1 mM NEAA 100 U/ml penicillin, and 100 μg/ml streptomycin. PC12 cells were grown in DMEMcontaining 10% horse serum, 5% FBS, 2 mM gln, 0 1 mMNEAA, 100 U/ml penicillin and 100 μ/ml streptomycin. Jurkat cells (human lymphoid cell line) were grown in RPMI-1640 supplemented with 10% FBS, 2mML-glutamine, 100 U/ml penicillin, and 100 μg/ml streptomycin. Human keratinocytes were isolated from newborn foreskin epidermis and cultured in Keratinocyte Growth Medium (Clonetics, San Diego, Ca.). All cell lines were maintained in a humidified incubator with a 5% CO2 atmosphere at 37° C.
(§3) pSV2CAT (5.0 Kb) was described previously (Gorman, C. M. et al. (1982) Mol. Cell. Biol. 2:1044). pCMVCAT (5.0 Kb) was also described previously (Foecking M. K. and Hofstetter, H. (1986) Gene 45:101). Plasmid DNA was purified by isopycnic centrifugation in CsCl/EtBr gradients after recovery by alkaline lysis (Maniatis, T. et al. (1982) in Molecular Cloning: A Laboratory Manual, Cold Spring Harbor Laboratory, Cold Spring Harbor, N.Y., pp. 90-91).
(§4) For transient transfection of pSV2CAT DNA or pCMVCAT DNA, cells were plated in 6-well tissue culture dishes (35 mm wells) and incubated overnight to approximately 60% confluency. To transfect cells in one well, 1-2 μg of pSV2CAT DNA or pCMVCAT DNA was diluted in 100 μl Opti-MEM I. Cationic lipids were diluted separately in another 100 μl aliquot of Opti-MEM I. The two solutions were then mixed in a polystyrene tube, incubated for 10-15 min at room temperature to allow the formation of a DNA-liposome complex, and diluted to one ml by adding 0.8 ml Opti-MEM I or DMEM containing 5% fetal bovine serum (FBS), 2 mMgln, 0.1 mMNEAA, and lacking antibiotics. The cells were washed once with Opti-MEM I or serum-free DMEM, and the DNA-liposome complex was added directly to the cells. After a six hr incubation at 37° C., the transfection complexes were removed and two ml of DMEM containing 10% FBS, 2 mMgln, 0.2 mMNEAA, 100 U/ml penicillin, and 100 μg/ml streptomycin, was added to each well. Note: human keratinocytes were cultured and transfected in Keratinocyte Growth Medium. Cells were incubated for an additional 48 hrs and lysed in situ by freeze-thawing once or twice in 300 μl 0.1M Tris-HC1, pH 7.8-8.0 containing 0 1% Triton X-100. Cell lysates were assayed for CAT activity.
(§5) Cell lysates were assayed for CAT activity as described by Neumann et al. (1987) BioTechniques 5:444 using [^14 C]-butyryl coenzyme A (New England Nuclear, Boston, Mass.). The enzyme reactions were incubated for 2 hrs at 37° C., overlayed with 3.0 ml Econofluor (New England Nuclear) and then incubated for an additional 2 hrs to allow diffusion of the acetylated chloramphenicol into the scintillation fluid. CAT activity was determined by measuring radioactivity in a liquid scintillation counter. […]

COS-7 cells = type: cell-based
Experimental: as §1, §2, §3, §4, §5

normal human fibroblasts = type: cell-based
Experimental: as §1, §2, §3, §4, §5

NIH-3T3 cells = type: cell-based, mouse
Experimental: as §1, §2, §3, §4, §5

PC12 cells = type: cell-based, rat
Experimental: as §1
Baby hamster kidney (BHK-21) , COS-7, HeLa-S3 cells, and normal human fibroblasts isolated from newborn foreskin dermis were grown in Dulbecco's-modified Eagle's medium (DMEM) containing 10% fetal bovine serum (FBS), 2 mM L-glutamine (gln), 0.1 mM MEM nonessential amino acids (NEAA), 100 U/ml penicillin, and 100 μg/ml streptomycin. […]
Cell lysates were assayed for CAT activity as described by Neumann et al. (1987) BioTechniques 5:444 using [^14 C]-butyryl coenzyme A (New England Nuclear, Boston, Mass.). […] CAT activity was determined by measuring radioactivity in a liquid scintillation counter. […]

Structure (SMILES): CCCCCCCC/C=C\CCCCCCCCOCC(C[N+](C)(C)CCNC(=O)C(CCCNCCCN)NCCCN)OCCCCCCCC/C=C\CCCCCCCC (centres unmarked) [Compound 8, 1-Propanaminium, N-[2-[[2,5-bis[(3-amino]-1-oxopentyl]amino]ethyl]-n,n-dimethyl-2,3,-bis(9-octadecenyloxy)-, tetra(trifluoroacetate) salt]
- DNA transfection (in words) [1]: highly effective
- CAT ACTIVITY (COS-7 cells; 12 μg lipid, 1 μg pSV2CAT, 6 h DMEM): 14,282 CPM/150 ul
- DNA transfection (in words) (COS-7 cells; Cos-7): highly effective
- DNA transfection (in words) (normal human fibroblasts): successfully transfected
- CAT ACTIVITY (NIH-3T3 cells; 15 μg lipid, 2 μg pCMVCAT, 6 h DMEM): 30,488 CPM/150 ul
- DNA transfection (in words) (NIH-3T3 cells; NIH-3T3): highly effective
- CAT ACTIVITY (PC12 cells; 40 μg lipid, 2 μg pCMVCAT, 6 h DMEM): 28,512 CPM/150 ul
- DNA transfection (in words) (PC12 cells; PC12): highly effective
